Where two headings read alike, the source gives them in different places.

Data set [1] has as its system L. (L.) infantum promastigotes. The experiment in a line: Promastigote viability, MTT colorimetric method. It is filed as cell-based, Leishmania (L.) infantum. How it is done: Promastigotes (1 × 10^6 parasites/well) in 96-well plates were incubated with the four compounds (150 to 1.2 μM) for 96 h at 24 °C. The parasite viability was determined using the MTT colorimetric method. Miltefosine was used as standard, with untreated cells as a negative control. A parallel promastigote activity assay was performed for 2 h with compound 2 (200 to 1.56 μM) for mechanism of action studies. After this period of incubation with compound 2, the parasites were washed twice with M-199 medium and the parasite viability was determined using the MTT colorimetric method for 4 h incubation at 24 °C.
(Tetrazolium dyes change colour on reduction, which living cells bring about.)

Data set [2] has as its system intracellular amastigotes of L. (L.) infantum. The experiment in a line: Intracellular amastigotes in peritoneal macrophages, light microscopy counting (infection index). It is filed as cell-based, Leishmania (L.) infantum. Conditions: for IC50: intracellular amastigotes in peritoneal macrophages, 96 h, read-out: IC50 (µM) ± SD Amastigote. How it is done: Peritoneal macrophages (1 × 10^5 cell/well) in 16-well slide chambers (NUNC) were infected with amastigotes at a ratio of 10:1 (amastigotes/macrophage) and treated with compounds (60 to 10 µM) for 96 h. Stained slides (Giemsa) were counted using light microscopy and IC50 determined by the infection index. Miltefosine was used as standard and untreated cells as a negative control.

Data set [3] concerns Fibroblast NCTC cells clone 929. The experiment in a line: Mammalian cytotoxicity, MTT colorimetric method. It is filed as cell-based, murine. Particulars: up to 200 μM, read-out: CC50 (µM) ± SD NCTC. How it is done:
(§1) Fibroblast NCTC cells clone 929 (6 × 10^4 cells/well) in 96-well plates were incubated with the compounds up to 200 μM in a 5% CO2 humidified incubator at 37 °C. CC50 was determined by the MTT colorimetric method. The selectivity index was determined using the following equation: CC50 against NCTC cells/IC50 against amastigotes

The test system of data set [4] is L. (L.) infantum promastigotes. It is filed as cell-based, Leishmania (L.) infantum. How it is done: Promastigotes (2 × 10^6 parasites/well) were incubated in 96-well black polystyrene microplates with 1 µM of Sytox Green (Molecular Probes) in HANKS’ balanced salt solution (Sigma-Aldrich) supplemented with 10 mM D-Glucose (Sigma-Aldrich, HBSS + Glu) at 24 °C for 15 min in the dark[45]. Compound 2 (190 µM) was added and the fluorescence was measured every 20 min for up to 2 h, using a fluorimetric microplate reader (FilterMax F5 Multi-Mode, Molecular Devices) with excitation and emission wavelengths of 485 and 520 nm, respectively. Maximum permeabilization was obtained using 0.5% Triton X-100 and untreated parasites were used as negative control.

Data set [5] concerns L. (L.) infantum promastigotes. The experiment in a line: Plasma membrane electric potential, DiSBAC2(3), flow cytometry. It is filed as cell-based, Leishmania (L.) infantum. How it is done: Promastigotes (2 × 10^6 parasites/well) were treated with compound 2 (190 µM) for 1 and 2 h in HBSS + Glu at 24 °C. DiSBAC2(3) (Molecular Probes) were added (0.2 µM) and the parasites were incubated by 5 min[47]. The fluorescence was measure using Attune NxT flow cytometer (Thermo Fisher Scientific) with excitation and emission wavelengths of 488 and 574 nm (BL-2), respectively. Raloxifene (60 μM) was used as positive control and untreated parasites were used as negative control. Unstained parasites were used to set background fluorescence.
(A flow cytometer gives signals particle by particle.)

Data set [6] relates to L. (L.) infantum promastigotes. Kind of data set: Mitochondrial membrane electric potential, JC-1, flow cytometry. It is filed as cell-based, Leishmania (L.) infantum. Particulars: 190 µM, 1 and 2 h, compared to untreated parasites. How it is done: Promastigotes (2 × 10^6 parasites/well) were treated for 1 and 2 h with compound 2 (190 µM) in HBSS + Glu at 24 °C. JC-1 dye (Molecular Probes) was added at a final concentration of 10 μM. The parasites were incubated in the dark for 20 min and washed to eliminate the non-internalized dye. The fluorescence was measure using Attune NxT flow cytometer (Thermo Fisher Scientific) with excitation filter wavelengths of 488 nm and emission of 530 (BL-1) and 574 nm (BL-2). The mitochondrial membrane potential was determined using BL-2/BL-1 ratio[49]. Maximum depolarization was obtained in the presence of CCCP (100 μM) and untreated parasites were used as negative control. Unstained parasites were used to set background fluorescence.

The subject of data set [7] is L. (L.) infantum promastigotes. The experiment in a line: ATP levels, bioluminescence assay. It is filed as cell-based, Leishmania (L.) infantum. Conditions: 190 µM, 1 and 2 h, compared to untreated parasites. How it is done: Promastigotes (2 × 10^6 parasites/well) were treated with compound 2 (190 µM) in HBSS + Glu for 1 and 2 h at 24 °C. Untreated parasites and treated with CCCP (25 µM) were included as negative and positive controls, respectively. The promastigotes were lysed using 0.5% Triton X-100 and mixed with a standard reaction buffer (ATP Determination Kit, Molecular Probes) containing DTT (1 mM), luciferin (0.5 mM) and firefly luciferase (1.25 µg/mL)[50]. Luminescence intensity was measured using a luminometer (FilterMax F5 Multi-Mode, Molecular Devices) and the amount of ATP was calculated from an ATP standard curve.

In data set [8] the test system is L. (L.) infantum promastigotes. The experiment in a line: Intracellular calcium levels, Fura-2 AM. It is filed as cell-based, Leishmania (L.) infantum. Particulars: 190 µM, 5, 20, 60 and 120 min. How it is done: Promastigotes (2 × 10^6 parasites/well) were pretreated with 5 µM of Fura-2 AM (Molecular Probes) in PBS 1x, for 40 min at 24 °C in the dark. The parasites were washed and treated with compound 2 (190 µM). The fluorescence was measured at 5, 20, 60 and 120 min, using a fluorimetric microplate reader (FilterMax F5 Multi-Mode, Molecular Devices) with excitation and emission wavelengths of 360 and 500 nm, respectively. Maximum levels of calcium were obtained using 0.5% Triton X-100 and untreated parasites were used as negative control.

The subject of data set [9] is L. (L.) infantum promastigotes. The experiment in a line: Cell cycle analysis, propidium iodide, flow cytometry. It is filed as cell-based, Leishmania (L.) infantum. Particulars: 24 h; compound 2 190 µM, miltefosine 25 μM. Here is the method:
Promastigotes (2 × 10^6 parasites/well) in mid-log phase were incubated with compound 2 (190 µM) in M-199 medium for 24 h at 24 °C. Parasites were washed and fixed in 70% ice-cold ethanol overnight at −20 °C. After a further wash with PBS 1x, the promastigotes were ressuspended in propidium iodide (10 µg/mL, Molecular Probes) and RNase A (20 µg/mL, Molecular Probes) for 30 min in the dark at room temperature. The fluorescence intensity was analyses using Attune NxT flow cytometer (Thermo Fisher Scientific) with excitation filter wavelengths of 488 nm and emission of 574 nm (BL-2)[47]. Maximum change in the cell cycle was obtained in the presence of miltefosine (25 μM) and untreated parasites were used as negative control. Unstained parasites were used to set background fluorescence.

For data set [10], the system named is L. (L.) infantum promastigotes. Kind of data set: Ultrastructural analysis by transmission electron microscopy. Also noted: dose or concentration left out as unconfirmed. It is filed as cell-based, Leishmania (L.) infantum. Conditions: (figure legend), 4 and 6 h. How it is done:
[…] Then, the parasites were washed, fixed in 2.5% glutaraldehyde in 0.1 M sodium cacodylate buffer (pH 7.3), postfixed in 1% osmium tetroxide. The parasites were dehydrated with acetone series and embedded in Epon resin. Ultrathin sections were stained with uranyl acetate and lead citrate. The material was analyzed under transmission electron microscopy (JEOL JEM-1011). Untreated parasites were used as negative control.

The test system of data set [11] is bone marrow-derived macrophages, uninfected and infected with L. (L.) infantum. The experiment in a line: Cytokine level quantification, CBA Mouse Inflammation Kit, flow cytometry. It is filed as cell-based, BALB/c mice. Conditions: 48 h. How it is done:
Bone marrow-derived macrophages (5 × 10^5 cells/well) in 24-well plates were infected with amastigotes at a ratio of 10:1 (amastigotes/macrophage) and kept at 37 °C in a 5% CO2 humidified incubator. Cell were treated with compound 2 (60 to 7.5 µM) for 48 h and the supernatant was collected and cytokine quantification was achieved using the CBA Mouse Inflammation Kit (BD Biosciences) according to the manufacturer’s instructions. The fluorescence was measured using BD LSRFortessa flow cytometer (BD Biosciences) and the data analysis was performed using the software FCAP Array (v.3). LPS (50 μg/mL) was used as positive control and untreated parasites were used as negative control.

For data set [12], the system named is Trypanosoma cruzi parasites. Also noted: method as in PMID 28864277. Particulars: cited from earlier work.
For data set [13], the system named is Trypanosoma cruzi parasites. Particulars: cited from earlier work.
The nature of data set [14]: Mammalian cytotoxicity, MTT colorimetric method. Particulars: mouse, NCTC clone 929 fibroblast cells, up to 200 μM, read-out: CC50 (µM) ± SD NCTC. It is filed as cell-based, murine. How it is done:
as §1

The test system of the next data set is Leishmania. Conditions: cited from earlier work.
Another data set concerns L. (L.) amazonensis. Details: method as in PMID 20064628. Conditions: cited from earlier work.
The mark [15] stands for this setting: 96 h at 24 °C, MTT, read-out: IC50 (µM) ± SD Promastigote.

For orientation: IC50 means the concentration at which inhibition is half-maximal. The CC50 is the concentration giving 50% cytotoxicity. Consider “1-Propyl-3-(1′-propyl-3′-methoxyphenoxy)-4,5-dimethoxybenzene [Compound 3]”, for which the IC50 in [1] (setting [15]) amounted to 29.6 ± 2.3 µM; in [2], 21.7 ± 1.9 µM. Further, the CC50 in [3] stood at 57.7 ± 1.1 µM.

Turning to “1-Propyl-3-(1′-propyl-3′-methoxyphenoxy)-5-methoxy-4-benzoyloxybenzene [Compound 2]”, the IC50 in data set [1] (setting [15]) is 105 ± 9.4 µM. For the same compound, the IC50 in data set [1] (after 2 h of incubation, used for mechanism of action assays, read-out: second IC50 value against promastigotes) turned out to be 190 µM. Also, the amastigotes eliminated in [2] (at the highest tested concentration) is recorded as 100%. Besides, the IC50 in data set [2] is 6.1 ± 1.2 µM. Further, the CC50 in data set [3] is greater than 200 µM. In [4], the “plasma membrane permeability (Sytox Green fluorescence)” value is “No changes in the fluorescence levels were observed”. In [5] (190 µM, 1 and 2 h, compared with untreated parasites), the “plasma membrane electric potential (ΔΨp), DiSBAC2(3) fluorescence” value is on record as “induced a significant (p < 0.0001) depolarization of the potential”. For the same compound, the “mitochondrial membrane electric potential (ΔΨm), JC-1 BL-2/BL-1 ratio” value in data set [6] was “induced a significant (p < 0.0001) depolarization of the mitochondrial membrane potential”. Also, in data set [7], the ATP concentration entry is reported as “dose-dependent decrease of ATP concentration”. Further, the “cytosolic Ca2+ levels (Fura-2 AM)” value in data set [8] is given as “induced a fast up-regulation of calcium levels, in a time-dependent manner”. Further, in [9], the “Proportion of promastigotes in different stages of cell cycle (% ± SD) G0/G1” value stood at 52.3 ± 1.1 %, the “Proportion of promastigotes in different stages of cell cycle (% ± SD) M/G2” value was determined as 26.4 ± 0.1 %, the “Proportion of promastigotes in different stages of cell cycle (% ± SD) S” value turned out to be 13.7 ± 0.7 % and the “Proportion of promastigotes in different stages of cell cycle (% ± SD) Sub G0” value is 3.0 ± 0.2 %. In addition, the “ultrastructural alterations (TEM)” value in [10] is “intense swelling of the mitochondria with severe loss of cristae and matrix and concentric membranous structures inside this organelle”. Further, the MCP-1 levels result in data set [11] (60 μM, both macrophage groups) is recorded as “decrease this chemokine in both macrophage groups”. Further, the TNF production entry in [11] (infected macrophages at 30 and 15 μM, uninfected at 60 and 30 μM) was “reduced the TNF production”.

On to `C=CCc1ccc(Oc2cc([C@@H](O)C=C)cc(OC)c2OC)c(OC)c1` [1-[(7S)-hydroxy-8-propenyl]-3-[3′-methoxy-1′-(8′-propenyl)-phenoxy]-4,5-methoxybenzene], for which, in [12], the “depolarization of the mitochondrial membrane” value is on record as “induce depolarization of the mitochondrial membrane”. The plasma membrane permeabilization result in data set [13] is recorded as “plasma membrane permeabilization was verified”.

For the compound `CCCCCCCCCCCCCCCCOP(=O)([O-])OCC[N+](C)(C)C` [Miltefosine, reference compound], in data set [1] (Leishmania infantum, 96 h at 24 °C, MTT, read-out: IC50 (µM) ± SD Promastigote), the IC50 stood at 5.1 ± 0.6 µM. Besides, the IC50 in data set [2] (Leishmania infantum, Peritoneal macrophage) amounted to 6.5 ± 3 µM. In [2] (ratio between CC50 in NCTC cells and IC50 in intracellular amastigotes), the “SI (Selectivity Index)” value is reported as 18.4. In addition, the CC50 in data set [14] was found to be 120 ± 4.2 µM. In data set [9], the “Proportion of promastigotes in different stages of cell cycle (% ± SD) G0/G1” value came out at 36.4 ± 1.3 %, the “Proportion of promastigotes in different stages of cell cycle (% ± SD) M/G2” value was 31.4 ± 0.5 %, the “Proportion of promastigotes in different stages of cell cycle (% ± SD) S” value is given as 12.3 ± 0.1 % and the “Proportion of promastigotes in different stages of cell cycle (% ± SD) Sub G0” value worked out at 10.1 ± 0.2 %.

In the case of `O=C(c1ccc(OCCN2CCCCC2)cc1)c1c(-c2ccc(O)cc2)sc2cc(O)ccc12` [Raloxifene, reference compound], in [5] (positive control, 60 μM), the “plasma membrane electric potential (ΔΨp), DiSBAC2(3) fluorescence” value was “caused increased levels of fluorescence”.

In the case of `C=CCc1ccc(Oc2cc(CC=C)cc(OC)c2O)c(OC)c1` [dehydrodieugenol B], the plasma membrane permeabilization result in [13] was “plasma membrane permeabilization was verified”.

For the compound `C/C=C/c1cc(OC)c2c(c1)[C@H](C)[C@@H](c1ccc(O)c(OC)c1)O2` [licarin A], the “anti-Leishmania effect and NO upregulation” value with Leishmania is on record as “anti-Leishmania effect without NO upregulation”.

For eupomatenoid-5, the “depolarization of the mitochondrial membrane” value in the data set on L. (L.) amazonensis is “induce depolarization of the mitochondrial membrane”.

These data come from article PMC6467890, “A semi-synthetic neolignan derivative from dihydrodieugenol B selectively affects the bioenergetic system of Leishmania infantum and inhibits cell division” (Scientific Reports, 2019).
